Test [1] concerns C. albicans (ATCC 60193). Briefly: microbe, parasite or virus in culture. Format: cell-based. To be noted: Candida albicans.
Test [2] has as its system C. albicans (ATCC 60193). Briefly: Kill kinetics assay. It counts as cell-based. The note with it: MIC and 4×MIC, compared to 3b and 4b.
The next test has as its system C. krusii (ATCC 6258). The test is described as follows: organism not typed. To be noted: read-out: MIC C. krusii (ATCC 6258).
In test [3] the test system is C. albicans (ATCC 60193). Briefly: microbe, parasite or virus in culture. To be noted: Candida albicans, ATCC60193, read-out: MIC C. albicans (ATCC 60193).
Another test relates to C. albicans (ATCC 10132). Briefly: microbe, parasite or virus in culture. The note with it: Candida albicans, ATCC10132, read-out: MIC C. albicans (ATCC 10132).
Test [4] has as its system Enterococcus faecium (ATCC 27270). Briefly: microbe, parasite or virus in culture. The note with it: ATCC27270, read-out: MIC Enterococcus faecium (ATCC 27270).
The test system of test [5] is Staphylococcus pneumoniae (ATCC 49619). The test is described as follows: microbe, parasite or virus in culture. To be noted: ATCC49619, read-out: MIC Staphylococcus pneumoniae (ATCC 49619).

Each structure is given as a SMILES string. Values after ≈ are worked out from the molar mass of the structure shown. Like-named read-outs stand apart in the source and are kept apart here.

Take `OC(Cn1cncn1)(Cn1cncn1)c1ccc(F)cc1F` [Fluconazole]: the MIC in the test with C. albicans (ATCC 60193) [1] (ATCC60193, read-out: MIC CaCl2) worked out at 1.5 µg/mL (≈ 4.9 µM); with C. albicans (ATCC 60193) [1] (ATCC60193, read-out: MIC Control), 1.5 µg/mL (≈ 4.9 µM); in the test with C. albicans (ATCC 60193) [1] (ATCC60193, read-out: MIC FBS (25%)) it was 1.5 µg/mL (≈ 4.9 µM); in the test on C. albicans (ATCC 60193) [1] (ATCC60193, read-out: MIC KCl) it was 1.5 µg/mL (≈ 4.9 µM); in the test on C. albicans (ATCC 60193) [1] (ATCC60193, read-out: MIC MgCl2) it was 1.5 µg/mL (≈ 4.9 µM); in the test on C. albicans (ATCC 60193) [1] (ATCC60193, read-out: MIC NH4Cl), 1.5 µg/mL (≈ 4.9 µM). In addition, the MIC with C. albicans (ATCC 60193) [1] (ATCC60193, read-out: MIC NaCl) came to 1.5 µg/mL (≈ 4.9 µM); in the test with C. krusii (ATCC 6258), 0.7 µg/mL (≈ 2.29 µM); in the test with C. albicans (ATCC 60193) [3] it was 1.5 µg/mL (≈ 4.9 µM); in the test on C. albicans (ATCC 10132), 0.7 µg/mL (≈ 2.29 µM). The “fungicidal effect in kill kinetics” value in the test with C. albicans (ATCC 60193) [2] is recorded as “mild fungicidal effect”.

Consider `CN[C@H](CC(C)C)C(=O)N[C@H]1C(=O)N[C@@H](CC(N)=O)C(=O)N[C@H]2C(=O)N[C@H]3C(=O)N[C@H](C(=O)N[C@H](C(=O)O)c4cc(O)cc(O)c4-c4cc3ccc4O)[C@H](O)c3ccc(c(Cl)c3)Oc3cc2cc(c3O[C@@H]2O[C@H](CO)[C@@H](O)[C@H](O)[C@H]2O[C@H]2C[C@](C)(N)[C@H](O)[C@H](C)O2)Oc2ccc(cc2Cl)[C@H]1O` [Vancomycin], for which the MIC in test [4] came to 1.5 µg/mL (≈ 1.04 µM); in test [5], 3.1 µg/mL (≈ 2.14 µM).

(Values after article PMC12207910 (European journal of pharmaceutical sciences : official …, 2024).)
